Measured values from PubChem BioAssay (NCI).
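How tested: cells in 96-well plates exposed to compound for 48 hours at five concentrations. Abbreviation: GI50, concentration required for 50% inhibition of growth. At the TGI there is no net growth.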

Experiments:
Assay in all cases: DTP human tumour cell line panel, 48 h
[1] = test system: SR leukemia
[2] = test system: NCI/ADR-RES ovarian
[3] = test system: NCI-H226 lung
[4] = test system: SNB-75 CNS
[5] = test system: NCI-H23 lung
[6] = test system: SNB-19 CNS
[7] = test system: OVCAR-5 ovarian
[8] = test system: SF-539 CNS
[9] = test system: A498 renal
[10] = test system: HCT-15 colon

`CC(=O)O[C@H]1C[C@H]2[C@@H](OC(C)=O)/C=C3\C[C@](C)(C(=O)[C@H](O)C(=C1C)C2(C)C)[C@@H](O)C[C@@H]3OC(=O)[C@H](O)[C@H](c1ccccc1)N(C)C` gave a TGI [1] greater than 100 µM, a TGI [2] greater than 100 µM and a TGI [3] greater than 100 µM. It also gave a TGI [4] greater than 100 µM, a TGI [5] greater than 100 µM and a TGI [6] greater than 100 µM. It also gave a TGI [7] greater than 100 µM, a TGI [8] greater than 100 µM and a TGI [9] greater than 100 µM. It also gave a TGI [10] greater than 100 µM.
Compound `Cc1cc2c(cc1Cl)SC(NS(=O)(=O)c1ccc(Cl)cc1)=NS2(=O)=O` has a TGI [1] of 30.4 µM, a TGI [2] greater than 100 µM and a TGI [3] greater than 100 µM. For the same compound, the TGI [4] was greater than 100 µM, the TGI [5] was greater than 100 µM and the TGI [6] was greater than 100 µM. For the same compound, the TGI [7] was greater than 100 µM, the TGI [8] was 73.9 µM and the TGI [9] was greater than 100 µM. For the same compound, the TGI [10] was greater than 100 µM.
In the case of `O=C(O)CC(CC(=O)O)C(=O)O`, the TGI [1] is reported as greater than 100 µM, the TGI [2] is reported as greater than 100 µM and the TGI [3] is reported as greater than 100 µM. The TGI [4] was greater than 100 µM, the TGI [5] was greater than 100 µM and the TGI [6] was greater than 100 µM. It also gave a TGI [7] greater than 100 µM, a TGI [8] greater than 100 µM and a TGI [9] greater than 100 µM. The TGI [10] was greater than 100 µM.
Compound `OC1[C@@H]2[C@@H](O)[C@H](O)[C@@H](O)N2C[C@@H]1O` (stereo not given in full) has a TGI [1] greater than 43.6 µM, a TGI [2] greater than 100 µM and a TGI [3] greater than 100 µM. It also gave a TGI [4] greater than 100 µM, a TGI [5] greater than 100 µM and a TGI [6] greater than 100 µM. For the same compound, the TGI [7] was greater than 100 µM, the TGI [8] was greater than 100 µM and the TGI [9] was greater than 100 µM. The TGI [10] was greater than 100 µM.
`C/C(=N\NC(=S)N1CCCCC1)c1nc2ncccc2[nH]1` showed a TGI [1] of 28.6 µM, a TGI [2] greater than 100 µM and a TGI [3] of 26.7 µM. The TGI [4] was greater than 100 µM, the TGI [5] was 57.5 µM and the TGI [6] was greater than 100 µM. It also gave a TGI [7] of 76.4 µM, a TGI [8] of 21.3 µM and a TGI [9] of 65.5 µM. The TGI [10] was greater than 100 µM.
`O=C1NC(NNc2ccccc2)=N/C1=C\c1ccccc1O` gave a TGI [1] greater than 100 µM, a TGI [2] greater than 100 µM and a TGI [3] greater than 100 µM. It also gave a TGI [4] greater than 100 µM, a TGI [5] greater than 100 µM and a TGI [6] greater than 100 µM. The TGI [7] was greater than 100 µM, the TGI [8] was greater than 100 µM and the TGI [9] was greater than 100 µM. The TGI [10] was greater than 100 µM.
`COc1cc(/C=C2\C[C@H]3[C@@H]4CCc5cc(O)ccc5[C@H]4CC[C@]3(C)C2=O)cc(OC)c1OC` gave a TGI [1] of 10.7 µM, a TGI [2] of 39.5 µM and a TGI [3] of 32 µM. For the same compound, the TGI [4] was 26.4 µM, the TGI [5] was 28.5 µM and the TGI [6] was 47.1 µM. The TGI [7] was 38.6 µM, the TGI [8] was 90.5 µM and the TGI [9] was 87.5 µM. The TGI [10] was greater than 100 µM.
Work on `CC1(C)CC(=O)c2[nH]c3ccccc3c2CC(=O)NCCc2cn1cn2` yielded a TGI [1] greater than 100 µM, a TGI [2] greater than 100 µM and a TGI [3] greater than 100 µM. The TGI [4] was greater than 100 µM, the TGI [5] was greater than 100 µM and the TGI [6] was greater than 100 µM. For the same compound, the TGI [7] was greater than 100 µM, the TGI [8] was greater than 100 µM and the TGI [9] was greater than 100 µM. It also gave a TGI [10] greater than 100 µM.
With `CN(C)CCCNC(=O)c1cc2[nH]c3c(cnc4ccc([N+](=O)[O-])cc43)c(=O)c2n1C` the GI50 [1] was 14.5 µM, the TGI [1] was 43.3 µM and the GI50 [2] was 22 µM. It also gave a TGI [2] of 49.6 µM, a GI50 [3] of 49.8 µM and a TGI [3] greater than 100 µM. It also gave a GI50 [4] of 15.5 µM, a TGI [4] of 28.9 µM and a GI50 [5] of 20.5 µM. For the same compound, the TGI [5] was 44.1 µM, the GI50 [6] was 17.7 µM and the TGI [6] was 33.6 µM. It also gave a GI50 [7] of 17.8 µM, a TGI [7] of 31.6 µM and a GI50 [8] of 17.6 µM. The TGI [8] was 31.7 µM, the GI50 [9] was 55.1 µM and the TGI [9] was greater than 100 µM. It also gave a GI50 [10] of 15.2 µM and a TGI [10] of 31.8 µM.
With `COC(=O)c1ccc(C(=O)NC(Cc2ccc(Oc3cc(CC(NC(=O)c4ccccc4C(=O)OC)C(=O)OC)ccc3OC)cc2)C(=O)OC)cc1` (stereo not given) the TGI [1] was greater than 100 µM, the TGI [2] was greater than 100 µM and the TGI [3] was greater than 100 µM. For the same compound, the TGI [4] was greater than 100 µM, the TGI [5] was greater than 100 µM and the TGI [6] was greater than 100 µM. The TGI [7] was greater than 100 µM, the TGI [8] was greater than 100 µM and the TGI [9] was greater than 100 µM. It also gave a TGI [10] greater than 100 µM.
`CCCn1c2ccccc2c2ccc3c(c21)C(=O)C=CC3=O` gave a TGI [1] of 0.883 µM, a TGI [2] greater than 6.93 µM and a TGI [3] greater than 10 µM. For the same compound, the TGI [4] was greater than 10 µM, the TGI [5] was 5.99 µM and the TGI [6] was greater than 10 µM. The TGI [7] was greater than 10 µM, the TGI [8] was greater than 6.41 µM and the TGI [9] was greater than 10 µM. The TGI [10] was 4.7 µM.
`Cc1cc(C)nc(NC(=O)c2ccc(Br)s2)c1` showed a TGI [1] greater than 100 µM, a TGI [2] greater than 100 µM and a TGI [3] greater than 100 µM. The TGI [4] was greater than 100 µM, the TGI [5] was greater than 100 µM and the TGI [6] was greater than 100 µM. For the same compound, the TGI [7] was 62.4 µM, the TGI [8] was greater than 100 µM and the TGI [9] was greater than 100 µM. For the same compound, the TGI [10] was greater than 100 µM.
`C=C(CCC/C(C)=C/C=C/[C@]1(C)CCCc2ccoc21)CC(=O)O` showed a TGI [1] greater than 100 µM, a TGI [2] greater than 100 µM and a TGI [3] greater than 100 µM. The TGI [4] was greater than 100 µM, the TGI [5] was greater than 100 µM and the TGI [6] was greater than 100 µM. For the same compound, the TGI [7] was greater than 100 µM, the TGI [8] was greater than 100 µM and the TGI [9] was greater than 100 µM. The TGI [10] was greater than 100 µM.
